Here are results for two molecules from ChEMBL document CHEMBL5465560, “Selectivity Literature for EUbOPEN Chemogenomic Library” (2024).

The target of test [1] is Ribosomal protein S6 kinase alpha-1 (Homo sapiens, UniProt Q15418). The test is described as follows: Selectivity interaction (ActivX KiNativ screen (kinase selectivity in THP-1 cell lysates)) EUB0000639a RPS6KA1. Type of test: subcellular. Conditions: lysate, at 0.01 µM.
In test [2] the target is T1, STE20-related kinase adapter protein alpha (Homo sapiens) (UniProt Q7RTN6).
T1 sequence (whole entry): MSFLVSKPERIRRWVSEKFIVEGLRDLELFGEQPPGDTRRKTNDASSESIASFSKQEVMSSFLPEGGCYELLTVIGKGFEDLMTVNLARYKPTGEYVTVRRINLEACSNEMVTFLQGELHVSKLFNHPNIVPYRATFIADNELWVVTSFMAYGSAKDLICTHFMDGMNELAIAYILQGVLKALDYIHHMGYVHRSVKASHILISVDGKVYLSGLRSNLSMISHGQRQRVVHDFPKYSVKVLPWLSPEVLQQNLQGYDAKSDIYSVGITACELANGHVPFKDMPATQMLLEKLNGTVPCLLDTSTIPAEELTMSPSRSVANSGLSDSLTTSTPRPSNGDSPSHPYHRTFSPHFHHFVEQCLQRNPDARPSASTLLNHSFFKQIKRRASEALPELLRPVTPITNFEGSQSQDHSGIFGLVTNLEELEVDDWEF
Briefly: Selectivity interaction (ActivX KiNativ screen (kinase selectivity in THP-1 cell lysates)) EUB0000639a STRADA. It counts as subcellular. To be noted: lysate.

Test [3] addresses Rho-associated protein kinase 2 (Homo sapiens, UniProt O75116). The test is described as follows: Selectivity interaction (Kinase panel (Invitrogen)) EUB0000639a ROCK2. To be noted: at 200 nM.
Test [4] concerns the target T2, Serine/threonine-protein kinase Nek1 (Homo sapiens) (UniProt Q96PY6).
T2 sequence (whole entry): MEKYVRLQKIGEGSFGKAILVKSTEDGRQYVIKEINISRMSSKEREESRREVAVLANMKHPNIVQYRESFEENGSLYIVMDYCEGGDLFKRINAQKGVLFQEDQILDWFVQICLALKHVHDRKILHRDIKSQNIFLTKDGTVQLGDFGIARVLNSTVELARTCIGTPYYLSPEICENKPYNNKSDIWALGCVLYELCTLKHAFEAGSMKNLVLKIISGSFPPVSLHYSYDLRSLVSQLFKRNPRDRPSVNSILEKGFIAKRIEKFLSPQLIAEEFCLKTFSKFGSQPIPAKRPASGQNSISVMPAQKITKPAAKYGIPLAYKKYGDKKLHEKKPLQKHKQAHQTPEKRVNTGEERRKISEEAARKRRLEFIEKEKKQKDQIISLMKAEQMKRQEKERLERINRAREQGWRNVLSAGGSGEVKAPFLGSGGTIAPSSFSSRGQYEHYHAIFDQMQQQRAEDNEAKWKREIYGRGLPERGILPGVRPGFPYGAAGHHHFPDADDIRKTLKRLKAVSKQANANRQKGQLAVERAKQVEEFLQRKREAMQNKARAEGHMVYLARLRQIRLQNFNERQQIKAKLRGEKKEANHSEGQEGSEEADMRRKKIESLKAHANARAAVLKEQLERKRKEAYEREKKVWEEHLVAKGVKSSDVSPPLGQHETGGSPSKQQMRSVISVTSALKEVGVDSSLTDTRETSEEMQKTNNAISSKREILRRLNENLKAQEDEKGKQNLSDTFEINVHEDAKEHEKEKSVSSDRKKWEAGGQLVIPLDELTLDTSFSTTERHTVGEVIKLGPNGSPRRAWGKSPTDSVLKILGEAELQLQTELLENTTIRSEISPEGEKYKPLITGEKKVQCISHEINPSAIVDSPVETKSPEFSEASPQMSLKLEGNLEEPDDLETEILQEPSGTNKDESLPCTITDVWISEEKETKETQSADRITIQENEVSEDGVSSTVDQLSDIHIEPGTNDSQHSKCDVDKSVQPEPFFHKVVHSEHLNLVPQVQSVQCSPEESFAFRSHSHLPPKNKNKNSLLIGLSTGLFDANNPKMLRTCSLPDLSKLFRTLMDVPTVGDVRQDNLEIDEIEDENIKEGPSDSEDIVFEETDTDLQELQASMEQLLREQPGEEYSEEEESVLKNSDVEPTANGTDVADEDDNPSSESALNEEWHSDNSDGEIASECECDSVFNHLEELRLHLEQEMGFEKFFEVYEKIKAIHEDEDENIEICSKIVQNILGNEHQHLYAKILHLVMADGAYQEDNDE
Briefly: Selectivity interaction (Kinase panel (Invitrogen)) EUB0000639a NEK1. Conditions: at 200 nM.

For test [5], the target named is Serine/threonine-protein kinase WNK2 (Homo sapiens) (UniProt Q9Y3S1). The test is described as follows: Selectivity interaction (KinomeScan (DiscoverX)) EUB0000695a WNK2. Conditions: at 100 nM.
Sequence of Serine/threonine-protein kinase WNK2 (Homo sapiens) (Q9Y3S1 whole entry): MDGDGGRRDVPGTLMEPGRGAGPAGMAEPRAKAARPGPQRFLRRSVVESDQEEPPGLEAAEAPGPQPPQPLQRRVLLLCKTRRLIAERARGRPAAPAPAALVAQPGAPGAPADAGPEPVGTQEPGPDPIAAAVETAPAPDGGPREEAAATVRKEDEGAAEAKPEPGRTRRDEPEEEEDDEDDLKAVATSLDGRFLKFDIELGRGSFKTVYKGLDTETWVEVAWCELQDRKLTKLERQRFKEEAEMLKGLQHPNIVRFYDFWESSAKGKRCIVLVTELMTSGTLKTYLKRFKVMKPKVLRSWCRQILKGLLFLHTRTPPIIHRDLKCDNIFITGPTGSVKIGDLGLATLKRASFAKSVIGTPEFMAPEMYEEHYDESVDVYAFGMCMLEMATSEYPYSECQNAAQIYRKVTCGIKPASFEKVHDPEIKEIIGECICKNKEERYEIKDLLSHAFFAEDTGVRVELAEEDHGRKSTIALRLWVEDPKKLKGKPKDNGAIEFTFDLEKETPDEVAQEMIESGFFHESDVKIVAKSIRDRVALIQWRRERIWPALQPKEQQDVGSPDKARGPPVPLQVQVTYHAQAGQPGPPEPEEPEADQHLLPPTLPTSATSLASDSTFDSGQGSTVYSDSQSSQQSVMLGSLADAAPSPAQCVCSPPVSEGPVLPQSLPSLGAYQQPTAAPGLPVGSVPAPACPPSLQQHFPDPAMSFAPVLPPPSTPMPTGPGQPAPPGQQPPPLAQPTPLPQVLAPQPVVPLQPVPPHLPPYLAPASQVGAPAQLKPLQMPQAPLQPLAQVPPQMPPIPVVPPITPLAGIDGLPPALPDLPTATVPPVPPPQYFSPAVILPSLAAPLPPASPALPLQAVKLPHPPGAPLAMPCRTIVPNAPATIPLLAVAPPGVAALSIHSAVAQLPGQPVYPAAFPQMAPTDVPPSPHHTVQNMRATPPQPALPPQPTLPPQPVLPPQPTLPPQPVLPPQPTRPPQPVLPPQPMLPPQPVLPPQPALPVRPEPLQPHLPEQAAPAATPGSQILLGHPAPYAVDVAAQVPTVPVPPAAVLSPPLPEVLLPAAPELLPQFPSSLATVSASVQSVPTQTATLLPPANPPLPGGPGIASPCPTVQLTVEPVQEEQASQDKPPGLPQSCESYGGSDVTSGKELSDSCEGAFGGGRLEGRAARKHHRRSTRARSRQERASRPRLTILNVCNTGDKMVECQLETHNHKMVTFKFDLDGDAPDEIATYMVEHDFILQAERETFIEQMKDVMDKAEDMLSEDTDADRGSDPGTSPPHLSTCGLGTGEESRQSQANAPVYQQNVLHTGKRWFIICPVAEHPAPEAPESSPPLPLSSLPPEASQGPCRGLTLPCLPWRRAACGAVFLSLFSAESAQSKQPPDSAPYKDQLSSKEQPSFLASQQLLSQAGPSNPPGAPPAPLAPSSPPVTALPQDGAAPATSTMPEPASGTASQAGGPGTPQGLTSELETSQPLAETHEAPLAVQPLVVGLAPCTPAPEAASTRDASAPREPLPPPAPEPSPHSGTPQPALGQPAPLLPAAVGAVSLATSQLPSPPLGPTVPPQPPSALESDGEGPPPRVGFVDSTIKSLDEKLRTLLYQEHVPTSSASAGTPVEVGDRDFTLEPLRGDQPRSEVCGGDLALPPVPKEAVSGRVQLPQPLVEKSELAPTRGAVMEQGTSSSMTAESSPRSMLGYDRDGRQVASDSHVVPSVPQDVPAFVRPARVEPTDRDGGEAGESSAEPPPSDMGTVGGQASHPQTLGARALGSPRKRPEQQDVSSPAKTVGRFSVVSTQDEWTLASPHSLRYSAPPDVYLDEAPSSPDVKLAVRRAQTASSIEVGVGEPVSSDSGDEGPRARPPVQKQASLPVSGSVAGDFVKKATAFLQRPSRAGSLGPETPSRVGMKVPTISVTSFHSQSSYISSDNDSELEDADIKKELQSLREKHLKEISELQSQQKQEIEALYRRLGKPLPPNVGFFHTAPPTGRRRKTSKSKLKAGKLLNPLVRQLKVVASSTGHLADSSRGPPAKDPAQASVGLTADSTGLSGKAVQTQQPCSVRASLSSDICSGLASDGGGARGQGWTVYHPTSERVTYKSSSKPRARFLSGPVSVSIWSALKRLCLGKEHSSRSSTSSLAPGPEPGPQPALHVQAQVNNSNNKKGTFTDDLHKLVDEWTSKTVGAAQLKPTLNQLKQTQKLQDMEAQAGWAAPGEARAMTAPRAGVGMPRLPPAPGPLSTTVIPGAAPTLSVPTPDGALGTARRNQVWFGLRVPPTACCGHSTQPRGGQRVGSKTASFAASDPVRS

SMILES strings stand for the structures.

Sequence of Ribosomal protein S6 kinase alpha-1 (Q15418 whole entry): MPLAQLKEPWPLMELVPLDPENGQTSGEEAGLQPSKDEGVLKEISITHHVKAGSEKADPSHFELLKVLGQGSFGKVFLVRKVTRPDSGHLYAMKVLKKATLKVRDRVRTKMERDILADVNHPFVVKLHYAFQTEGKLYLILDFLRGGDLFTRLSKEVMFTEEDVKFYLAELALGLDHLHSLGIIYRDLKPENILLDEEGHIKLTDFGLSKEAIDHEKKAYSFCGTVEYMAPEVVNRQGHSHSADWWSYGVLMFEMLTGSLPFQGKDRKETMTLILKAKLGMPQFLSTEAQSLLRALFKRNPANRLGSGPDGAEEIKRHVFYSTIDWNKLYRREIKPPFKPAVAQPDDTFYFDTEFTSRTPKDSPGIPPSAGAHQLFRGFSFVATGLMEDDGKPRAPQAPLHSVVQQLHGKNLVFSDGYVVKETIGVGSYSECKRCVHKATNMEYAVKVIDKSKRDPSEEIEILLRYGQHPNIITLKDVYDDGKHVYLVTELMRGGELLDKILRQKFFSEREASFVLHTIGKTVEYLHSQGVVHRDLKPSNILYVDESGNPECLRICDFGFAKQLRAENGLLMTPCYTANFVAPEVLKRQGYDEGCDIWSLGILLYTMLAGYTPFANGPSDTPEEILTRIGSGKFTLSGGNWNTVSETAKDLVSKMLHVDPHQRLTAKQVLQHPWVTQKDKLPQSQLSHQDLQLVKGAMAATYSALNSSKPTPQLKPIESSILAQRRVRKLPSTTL
Sequence of Rho-associated protein kinase 2 (O75116 whole entry, looked up): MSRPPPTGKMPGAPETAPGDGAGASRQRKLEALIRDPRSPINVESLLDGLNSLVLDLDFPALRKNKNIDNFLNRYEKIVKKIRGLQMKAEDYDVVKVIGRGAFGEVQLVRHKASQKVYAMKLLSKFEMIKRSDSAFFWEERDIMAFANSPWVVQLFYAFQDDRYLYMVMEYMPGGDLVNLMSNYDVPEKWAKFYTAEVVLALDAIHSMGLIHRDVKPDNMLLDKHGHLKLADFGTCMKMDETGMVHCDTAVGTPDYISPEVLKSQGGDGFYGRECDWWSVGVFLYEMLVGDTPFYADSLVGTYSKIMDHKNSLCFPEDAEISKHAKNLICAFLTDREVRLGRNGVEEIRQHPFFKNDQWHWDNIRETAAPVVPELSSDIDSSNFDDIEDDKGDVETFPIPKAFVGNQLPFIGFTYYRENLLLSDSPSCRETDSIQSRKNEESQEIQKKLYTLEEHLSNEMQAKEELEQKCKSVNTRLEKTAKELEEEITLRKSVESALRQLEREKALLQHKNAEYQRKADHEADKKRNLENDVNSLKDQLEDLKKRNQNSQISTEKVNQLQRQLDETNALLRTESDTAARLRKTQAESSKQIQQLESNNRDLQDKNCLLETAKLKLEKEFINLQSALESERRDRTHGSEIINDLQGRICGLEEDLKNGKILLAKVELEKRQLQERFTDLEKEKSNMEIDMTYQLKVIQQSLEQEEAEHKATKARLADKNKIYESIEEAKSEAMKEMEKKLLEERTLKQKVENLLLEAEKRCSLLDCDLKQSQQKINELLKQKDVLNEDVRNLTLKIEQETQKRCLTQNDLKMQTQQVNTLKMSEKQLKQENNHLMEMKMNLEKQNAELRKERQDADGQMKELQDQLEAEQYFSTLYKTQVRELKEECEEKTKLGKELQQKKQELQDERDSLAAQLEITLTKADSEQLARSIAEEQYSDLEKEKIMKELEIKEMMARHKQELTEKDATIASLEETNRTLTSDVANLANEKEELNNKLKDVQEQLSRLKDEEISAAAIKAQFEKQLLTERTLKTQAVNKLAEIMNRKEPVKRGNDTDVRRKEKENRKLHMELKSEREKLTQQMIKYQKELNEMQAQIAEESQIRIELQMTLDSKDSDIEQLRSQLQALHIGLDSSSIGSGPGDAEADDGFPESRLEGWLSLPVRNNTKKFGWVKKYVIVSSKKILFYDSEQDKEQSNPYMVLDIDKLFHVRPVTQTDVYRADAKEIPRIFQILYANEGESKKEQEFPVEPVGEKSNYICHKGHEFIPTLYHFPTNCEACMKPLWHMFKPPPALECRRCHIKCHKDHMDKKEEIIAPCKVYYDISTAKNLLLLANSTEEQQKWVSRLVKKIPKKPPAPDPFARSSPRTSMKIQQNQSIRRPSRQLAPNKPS

In the case of `CC[C@@H]1[C@H](F)C(=O)N[C@@H]1COc1nccc2cc(C(N)=O)c(OC)cc12` [ZIMLOVISERTIB], the % of inhibition in test [1] is 25.4%; in test [2] (at 0.01 µM), -13.1%; in test [2] (at 0.04 µM) it was 4.6%; in test [2] (at 0.2 µM) it was -11.6%; in test [2] (at 1 µM), 5.4%; in test [2] (at 5 µM), 3.6%. In addition, the results for the % of inhibition in test [3] and in test [4] were 18.6% and 10.2%, respectively.
In turn, `Cc1cc(F)c(C(=O)Nc2cccc(-c3nncn3C(C)C)n2)cc1-n1cnc(C2CC2)c1` yielded a % of control in test [5] of 78%.
